Experimental data as given in the NIST ThermoML archive (doi:10.1007/s10765-014-1730-1).

Conditions: Vibrating tube method; for mass density: Liquid; for specific volume: Gas

F/C=C\C(F)(F)F [(Z)-1,3,3,3-tetrafluoro-1-propene]
Conditions | mass density [kg/m3] | specific volume [m3/kg]
283.15 K, 19923 kPa | 1312.8 | –
283.15 K, 30988 kPa | 1335.2 | –
283.16 K, 188 kPa | 1262.2 | –
283.16 K, 714 kPa | 1263.9 | –
283.16 K, 1728 kPa | 1266.9 | –
283.16 K, 2742 kPa | 1270 | –
283.16 K, 3759 kPa | 1273 | –
283.16 K, 4785 kPa | 1275.9 | –
283.16 K, 5794 kPa | 1278.6 | –
283.16 K, 6808 kPa | 1281.4 | –
283.16 K, 7810 kPa | 1284.1 | –
283.16 K, 8829 kPa | 1286.8 | –
283.16 K, 9831 kPa | 1289.3 | –
283.16 K, 10842 kPa | 1291.8 | –
283.16 K, 11848 kPa | 1294.3 | –
283.16 K, 12862 kPa | 1296.7 | –
283.16 K, 13869 kPa | 1299.3 | –
283.16 K, 14880 kPa | 1301.5 | –
283.16 K, 15887 kPa | 1304 | –
283.16 K, 16901 kPa | 1306.2 | –
283.16 K, 17911 kPa | 1308.5 | –
283.16 K, 18920 kPa | 1310.8 | –
283.16 K, 20928 kPa | 1315.1 | –
283.16 K, 21929 kPa | 1317.3 | –
283.16 K, 22938 kPa | 1319.3 | –
283.16 K, 23940 kPa | 1321.4 | –
283.16 K, 24945 kPa | 1323.4 | –
283.16 K, 25950 kPa | 1325.4 | –
283.16 K, 26964 kPa | 1327.4 | –
283.16 K, 27969 kPa | 1329.6 | –
283.16 K, 28981 kPa | 1331.5 | –
283.16 K, 29981 kPa | 1333.4 | –
283.16 K, 32001 kPa | 1337.1 | –
283.16 K, 33010 kPa | 1339 | –
283.16 K, 34026 kPa | 1340.8 | –
293.14 K, 707 kPa | 1238 | –
293.14 K, 3747 kPa | 1248.2 | –
293.14 K, 6783 kPa | 1257.5 | –
293.14 K, 8789 kPa | 1263.5 | –
293.14 K, 21891 kPa | 1296.5 | –
293.14 K, 22907 kPa | 1298.7 | –
293.14 K, 23918 kPa | 1301 | –
293.14 K, 24927 kPa | 1303.2 | –
293.14 K, 31982 kPa | 1317.6 | –
293.15 K, 202 kPa | 1236.1 | –
293.15 K, 1711 kPa | 1241.3 | –
293.15 K, 2717 kPa | 1244.8 | –
293.15 K, 4772 kPa | 1251.4 | –
293.15 K, 5777 kPa | 1254.5 | –
293.15 K, 7789 kPa | 1260.4 | –
293.15 K, 9806 kPa | 1266.1 | –
293.15 K, 10808 kPa | 1269.1 | –
293.15 K, 11817 kPa | 1271.7 | –
293.15 K, 12827 kPa | 1274.3 | –
293.15 K, 13836 kPa | 1277 | –
293.15 K, 14850 kPa | 1279.6 | –
293.15 K, 15856 kPa | 1282.1 | –
293.15 K, 16856 kPa | 1284.7 | –
293.15 K, 17859 kPa | 1287 | –
293.15 K, 18869 kPa | 1289.6 | –
293.15 K, 19873 kPa | 1292 | –
293.15 K, 20882 kPa | 1294.3 | –
293.15 K, 25932 kPa | 1305.2 | –
293.15 K, 26941 kPa | 1307.2 | –
293.15 K, 27957 kPa | 1309.7 | –
293.15 K, 28963 kPa | 1311.6 | –
293.15 K, 29972 kPa | 1313.7 | –
293.15 K, 30977 kPa | 1315.7 | –
293.15 K, 32993 kPa | 1319.5 | –
293.15 K, 33996 kPa | 1321.6 | –
303.15 K, 82.1 kPa | – | 0.259
303.15 K, 113.7 kPa | – | 0.185
303.15 K, 184.2 kPa | – | 0.111
303.15 K, 190.7 kPa | – | 0.107
303.15 K, 1705 kPa | 1215.3 | –
303.15 K, 3735 kPa | 1222.8 | –
303.15 K, 4759 kPa | 1226.3 | –
303.15 K, 7774 kPa | 1236.5 | –
303.15 K, 8779 kPa | 1239.7 | –
303.15 K, 10782 kPa | 1245.9 | –
303.15 K, 12803 kPa | 1251.9 | –
303.15 K, 13813 kPa | 1254.8 | –
303.15 K, 14822 kPa | 1257.6 | –
303.15 K, 15833 kPa | 1260.3 | –
303.15 K, 16844 kPa | 1263 | –
303.15 K, 17858 kPa | 1265.7 | –
303.15 K, 18870 kPa | 1268.3 | –
303.15 K, 19882 kPa | 1270.9 | –
303.15 K, 20888 kPa | 1273.4 | –
303.15 K, 21903 kPa | 1275.9 | –
303.15 K, 22911 kPa | 1278.3 | –
303.15 K, 23920 kPa | 1280.7 | –
303.15 K, 24935 kPa | 1283 | –
303.15 K, 25951 kPa | 1285.4 | –
303.15 K, 26951 kPa | 1287.7 | –
303.15 K, 27967 kPa | 1289.9 | –
303.15 K, 28968 kPa | 1292.1 | –
303.15 K, 29985 kPa | 1294.3 | –
303.15 K, 30991 kPa | 1296.4 | –
303.15 K, 31993 kPa | 1298.6 | –
303.15 K, 32995 kPa | 1300.6 | –
303.15 K, 34000 kPa | 1302.7 | –
303.16 K, 217 kPa | 1209.4 | –
303.16 K, 692 kPa | 1211.4 | –
303.16 K, 2712 kPa | 1219.1 | –
303.16 K, 5769 kPa | 1229.9 | –
303.16 K, 6772 kPa | 1233.2 | –
303.16 K, 9780 kPa | 1242.9 | –
303.16 K, 11794 kPa | 1249 | –
308.15 K, 83.4 kPa | – | 0.259
308.15 K, 115.8 kPa | – | 0.185
308.15 K, 187.8 kPa | – | 0.111
308.15 K, 194.6 kPa | – | 0.107
308.15 K, 215.4 kPa | – | 0.095
313.15 K, 84.9 kPa | – | 0.259
313.15 K, 117.9 kPa | – | 0.185
313.15 K, 191.5 kPa | – | 0.111
313.15 K, 198.5 kPa | – | 0.107
313.15 K, 325 kPa | 1182 | –
313.15 K, 777 kPa | 1184 | –
313.15 K, 1789 kPa | 1188.5 | –
313.15 K, 2791 kPa | 1192.7 | –
313.15 K, 3819 kPa | 1196.9 | –
313.15 K, 4846 kPa | 1201.1 | –
313.15 K, 5847 kPa | 1204.9 | –
313.15 K, 6862 kPa | 1208.7 | –
313.15 K, 7865 kPa | 1212.3 | –
313.15 K, 8867 kPa | 1215.8 | –
313.15 K, 9876 kPa | 1219.3 | –
313.15 K, 10884 kPa | 1222.7 | –
313.15 K, 11896 kPa | 1226 | –
313.15 K, 12909 kPa | 1229.2 | –
313.15 K, 13913 kPa | 1232.4 | –
313.15 K, 14924 kPa | 1235.4 | –
313.15 K, 15924 kPa | 1238.4 | –
313.15 K, 16925 kPa | 1241.4 | –
313.15 K, 17931 kPa | 1244.2 | –
313.15 K, 18933 kPa | 1247 | –
313.15 K, 19934 kPa | 1249.8 | –
313.15 K, 20940 kPa | 1252.5 | –
313.15 K, 21945 kPa | 1255.1 | –
313.15 K, 22953 kPa | 1257.8 | –
313.15 K, 23961 kPa | 1260.4 | –
313.15 K, 24962 kPa | 1262.9 | –
313.15 K, 25963 kPa | 1265.3 | –
313.15 K, 26966 kPa | 1267.7 | –
313.15 K, 27968 kPa | 1270.1 | –
313.15 K, 28969 kPa | 1272.5 | –
313.15 K, 29976 kPa | 1274.8 | –
313.15 K, 30978 kPa | 1277 | –
313.15 K, 31986 kPa | 1279.3 | –
313.15 K, 32992 kPa | 1281.6 | –
313.15 K, 34000 kPa | 1283.8 | –
313.16 K, 219.8 kPa | – | 0.095
315.15 K, 270.7 kPa | – | 0.076
318.15 K, 86.3 kPa | – | 0.26
318.15 K, 120 kPa | – | 0.185
318.15 K, 195.2 kPa | – | 0.111
318.15 K, 202.2 kPa | – | 0.107
318.15 K, 224 kPa | – | 0.095
320.15 K, 276.3 kPa | – | 0.076
323.14 K, 4763 kPa | 1174.1 | –
323.14 K, 16843 kPa | 1218.6 | –
323.14 K, 21889 kPa | 1233.7 | –
323.14 K, 29946 kPa | 1254.9 | –
323.14 K, 30956 kPa | 1257.3 | –
323.15 K, 87.8 kPa | – | 0.26
323.15 K, 122.1 kPa | – | 0.185
323.15 K, 198.9 kPa | – | 0.111
323.15 K, 206 kPa | – | 0.107
323.15 K, 228.3 kPa | – | 0.095
323.15 K, 363.2 kPa | – | 0.057
323.15 K, 392 kPa | 1153.1 | –
323.15 K, 686 kPa | 1154.6 | –
323.15 K, 1702 kPa | 1159.8 | –
323.15 K, 2712 kPa | 1164.7 | –
323.15 K, 3731 kPa | 1169.5 | –
323.15 K, 5778 kPa | 1178.4 | –
323.15 K, 6786 kPa | 1182.7 | –
323.15 K, 7786 kPa | 1186.7 | –
323.15 K, 8786 kPa | 1190.6 | –
323.15 K, 9791 kPa | 1194.4 | –
323.15 K, 10796 kPa | 1198.2 | –
323.15 K, 11803 kPa | 1201.8 | –
323.15 K, 12805 kPa | 1205.3 | –
323.15 K, 13812 kPa | 1208.8 | –
323.15 K, 14822 kPa | 1212.1 | –
323.15 K, 15831 kPa | 1215.4 | –
323.15 K, 17849 kPa | 1221.7 | –
323.15 K, 18857 kPa | 1224.9 | –
323.15 K, 19866 kPa | 1227.9 | –
323.15 K, 20875 kPa | 1230.8 | –
323.15 K, 22900 kPa | 1236.5 | –
323.15 K, 23908 kPa | 1239.3 | –
323.15 K, 24908 kPa | 1242 | –
323.15 K, 25914 kPa | 1244.6 | –
323.15 K, 26926 kPa | 1247.3 | –
323.15 K, 27933 kPa | 1249.8 | –
323.15 K, 28945 kPa | 1252.4 | –
323.15 K, 31966 kPa | 1259.8 | –
323.15 K, 32979 kPa | 1262.2 | –
323.15 K, 33992 kPa | 1264.5 | –
325.15 K, 281.9 kPa | – | 0.076
328.15 K, 89.2 kPa | – | 0.26
328.15 K, 124.1 kPa | – | 0.185
